Data from publication PMC5047949, “Kinetic analysis of the translocator protein positron emission tomography ligand [^18F]GE-180 in the human brain” (European Journal of Nuclear Medicine and Molecular Imaging, 2016).

What was measured:
[1] = test system: translocator protein (TSPO); test: Dynamic [^18F]GE-180 brain PET with arterial input; 1TC, 2TC and Logan kinetic modelling; type: in vivo, human; conditions: for Distribution volume ratio: cortical grey matter pseudoreference, median (IQR); for K1 / VT / k2 / k3 / k4: median (interquartile range)
Experimental: PET studies were performed on a Biograph 6 (six-slice CT) scanner after administration of 182 ± 3.1 MBq via intravenous bolus injection over 10 s followed by a 10-mL saline flush. A low-dose CT scan preceded the PET acquisition to allow correction for tissue attenuation. Emission data were then acquired over 90 min in list mode and reconstructed as 24 temporal frames (6 × 15, 3 × 60, 5 × 120, 5 × 300, 5 × 600 s) using filtered back-projection (matrix size 168 × 168, zoom 2.6, 5-mm gaussian filter, pixel size 1.56 × 1.56, slice thickness 3 mm) with and without attenuation correction. Standard corrections for scatter, decay and random counts were applied.
We used the PET data analysis and kinetic modelling toolkit, MIAKAT™ (www.miakat.org), which incorporates software from SPM5 (Wellcome Trust Centre for Neuroimaging) and FSL (FMRIB, University of Oxford). The brain was initially extracted from the T1-weighted MR images. The CIC neuroanatomical atlas was nonlinearly registered to the individual’s extracted brain in order to generate a personalized set of anatomically parcellated regions. Frame-by-frame motion correction of the dynamic (without attenuation correction) PET data was performed using mutual information coregistration of the individual frames to a reference frame. An average motion-corrected PET image was generated and used for coregistration with the T1-weighted MR image. Finally, regional tissue time–activity curves (TACs) were generated for each region of interest (ROI) defined from the CIC atlas that had been transformed into each individual’s image space.
Datasets were analysed with a one-tissue compartment (1TC) model and a two-tissue compartment (2TC) model and the Logan graphical method, using the metabolite-corrected plasma input function as previously described with a fixed 5 % blood volume correction. The primary outcome measures were the radioligand delivery rate constant (K1; mL cm^−3 min^−1), total distribution volume (VT: mL cm^−3), and standardized uptake values (SUV). The SUV ratio (SUVR) and distribution volume ratio (DVR) were estimated using the cortical grey matter as a pseudo reference region.
To investigate the stability of VT over different scan durations, a time stability analysis was performed by analysing data for total time windows that ranged between 40 and 90 min in 10-min increments.

[2] = Safety and tolerability after radioligand administration; type: in vivo, human
From the text: With regard to correlations between age and the principal outcome measure, there were no significant correlations between age and VT in either HABs and MABs in any of the ROIs studied (Spearman’s rho = −0.3 – 0.7 p = 0.188 – 0.873 in HABs; Spearman’s rho = 0.1 – 0.8, p = 0.104 – 0.94 in MABs). There were also no significant relationships between age and outcome measures when added as a covariate in the repeated measures ANOVA. Demographic data are provided in Supplementary Table 1.

[3] = pH 7.4; preclinical work; cited from earlier work
[4] = 2TC-fix model, across all regions and subjects
[5] = Logan graphical method, Cerebellum
[6] = Logan graphical method, Frontal lobe
[7] = Logan graphical method, Occipital lobe
[8] = Logan graphical method, Parietal lobe
[9] = Logan graphical method, Striatum
[10] = Logan graphical method, Temporal lobe
[11] = Logan graphical method, Thalamus

## CCN(CC)C(=O)[C@H]1CCCc2c1c1c(OC)cccc1n2CC[18F] [[^18F]GE-180]
[1]; 1TC model, Cerebellum
  Distribution volume ratio: 0.968 (0.91 – 1)
  K1: 0.00656 (0.0054 – 0.0076) mL/min
  VT: 0.178 (0.16 – 0.22) mL/cm^3
  k2: 0.0339 (0.034 – 0.034) /min
[1]; 1TC model, Frontal lobe
  Distribution volume ratio: 0.939 (0.94 – 0.95)
  K1: 0.00472 (0.0041 – 0.006) mL/min
  VT: 0.171 (0.15 – 0.22) mL/cm^3
  k2: 0.0271 (0.023 – 0.028) /min
[1]; 1TC model, Occipital lobe
  Distribution volume ratio: 1.12 (1.1 – 1.2)
  K1: 0.00621 (0.0057 – 0.0074) mL/min
  VT: 0.214 (0.19 – 0.25) mL/cm^3
  k2: 0.03 (0.025 – 0.032) /min
[1]; 1TC model, Parietal lobe
  Distribution volume ratio: 0.969 (0.96 – 1)
  K1: 0.00513 (0.004 – 0.0061) mL/min
  VT: 0.19 (0.16 – 0.22) mL/cm^3
  k2: 0.027 (0.024 – 0.028) /min
[1]; 1TC model, Striatum
  Distribution volume ratio: 0.826 (0.78 – 0.89)
  K1: 0.00358 (0.003 – 0.0046) mL/min
  VT: 0.155 (0.14 – 0.2) mL/cm^3
  k2: 0.0241 (0.021 – 0.025) /min
[1]; 1TC model, Temporal lobe
  K1: 0.00514 (0.0048 – 0.006) mL/min
  VT: 0.182 (0.17 – 0.24) mL/cm^3
  k2: 0.0266 (0.025 – 0.028) /min
[1]; 1TC model, Thalamus
  Distribution volume ratio: 1.03 (0.96 – 1.1)
  K1: 0.00555 (0.0046 – 0.0058) mL/min
  VT: 0.182 (0.17 – 0.24) mL/cm^3
  k2: 0.0261 (0.024 – 0.028) /min
[1]; 2TC model, Cerebellum
  Distribution volume ratio: 0.916 (0.69 – 0.98)
  K1: 0.0224 (0.016 – 1.3) mL/min
  VT: 0.281 (0.25 – 0.33) mL/cm^3
  k2: 0.319 (0.23 – 78) /min
  k3: 0.0331 (0.029 – 0.091) /min
  k4: 0.0113 (0.0084 – 0.018) /min
[1]; 2TC model, Frontal lobe
  Distribution volume ratio: 0.984 (0.96 – 1.2)
  K1: 0.0102 (0.0089 – 0.013) mL/min
  VT: 0.346 (0.26 – 0.5) mL/cm^3
  k2: 0.195 (0.15 – 1.6) /min
  k3: 0.0301 (0.024 – 0.15) /min
  k4: 0.00653 (0.004 – 0.017) /min
[1]; 2TC model, Occipital lobe
  Distribution volume ratio: 1.07 (0.97 – 1.1)
  K1: 0.0238 (0.019 – 0.031) mL/min
  VT: 0.35 (0.3 – 0.52) mL/cm^3
  k2: 0.385 (0.2 – 0.62) /min
  k3: 0.0395 (0.036 – 0.054) /min
  k4: 0.0101 (0.0062 – 0.014) /min
[1]; 2TC model, Parietal lobe
  Distribution volume ratio: 1.01 (0.98 – 1.1)
  K1: 0.0116 (0.011 – 0.014) mL/min
  VT: 0.33 (0.31 – 0.42) mL/cm^3
  k2: 0.192 (0.15 – 0.25) /min
  k3: 0.0334 (0.025 – 0.039) /min
  k4: 0.00873 (0.0045 – 0.014) /min
[1]; 2TC model, Striatum
  Distribution volume ratio: 0.451 (0.41 – 0.71)
  K1: 0.00413 (0.0033 – 0.0088) mL/min
  VT: 0.155 (0.14 – 0.22) mL/cm^3
  k2: 1.14 (0.66 – 1.7) /min
  k3: 4.89 (0.62 – 9.1) /min
  k4: 0.14 (0.027 – 0.21) /min
[1]; 2TC model, Temporal lobe
  Distribution volume ratio: 0.958 (0.93 – 1)
  K1: 0.0143 (0.012 – 0.032) mL/min
  VT: 0.306 (0.27 – 0.42) mL/cm^3
  k2: 0.217 (0.16 – 1.3) /min
  k3: 0.0348 (0.03 – 0.15) /min
  k4: 0.00927 (0.0063 – 0.016) /min
[1]; 2TC model, Thalamus
  Distribution volume ratio: 0.922 (0.81 – 1.1)
  K1: 0.0118 (0.011 – 0.014) mL/min
  VT: 0.376 (0.28 – 0.41) mL/cm^3
  k2: 0.16 (0.14 – 0.2) /min
  k3: 0.0315 (0.026 – 0.042) /min
  k4: 0.00881 (0.0062 – 0.012) /min
[1]; 2TC model, healthy subjects
  average regional delivery rate constant (K1): 0.01 mL cm^−3 min^−1
[1]; [4]
  K1, average: 0.013 mL cm^−3 min^−1
  VT, average: 0.311 mL cm^−3
  k2, average: 0.229 min⁻¹
  k3, average: 0.035 min⁻¹
  k4, average: 0.010 min⁻¹
[1]; [5]
  Distribution volume ratio: 0.99 (0.91 – 1)
  VT: 0.29 (0.24 – 0.3) mL/cm^3
[1]; [6]
  Distribution volume ratio: 0.931 (0.92 – 0.97)
  VT: 0.265 (0.23 – 0.33) mL/cm^3
[1]; [7]
  Distribution volume ratio: 1.14 (1.1 – 1.2)
  VT: 0.34 (0.3 – 0.39) mL/cm^3
[1]; [8]
  Distribution volume ratio: 0.996 (0.93 – 1)
  VT: 0.284 (0.23 – 0.35) mL/cm^3
[1]; [9]
  Distribution volume ratio: 0.844 (0.7 – 0.92)
  VT: 0.25 (0.21 – 0.29) mL/cm^3
[1]; [10]
  Distribution volume ratio: 1.01 (0.95 – 1.1)
  VT: 0.312 (0.24 – 0.36) mL/cm^3
[1]; [11]
  Distribution volume ratio: 0.991 (0.98 – 1)
  VT: 0.3 (0.26 – 0.31) mL/cm^3
[1]; all subjects
  time of peak concentration in the brain: around 1 min
[1]; healthy subjects, from K1 of the 2TC model
  extraction across the blood–brain barrier (first-pass extraction): approximately 1%
[1]; striatum (lowest ROI), 2TC model
  estimated median VT: 0.16 mL cm^−3
[1]; thalamus (highest ROI), 2TC model
  estimated median VT: 0.38 mL cm^−3
[1]; tissue TAC minus whole-blood radioactivity curve
  share of activity in a typical ROI that came from blood: approximately 20%
[2]; healthy subjects
  safety of tracer administration: safe
[2]; patient reports, blood pressure, pulse, respiration rate, oxygen saturation
  pharmacological effects after injection: no pharmacological effects
[3]
  logD: 2.95
